Earlier results in patent US6103262A, “Modified-release metronidazole compositions and methods for making and using same” (priority 1994, dated 2000).

What was measured:
[1] = in vivo
[2] = test system: trichomoniasis or bacterial vaginosis
[3] = test system: Trichomonas vaginalis, Entamoeba histolytica, Helicobacter species, anaerobic bacteria

absorption by the bloodstream [1]: rapidly absorbed
clearance from the bloodstream [1]: rapidly cleared
aqueous solubility (in words): aqueous soluble
SMILES: Cc1ncc([N+](=O)[O-])n1CCO [metronidazole, 1-(2-hydroxyethyl)-2-methyl-5-nitroimidazole]
side effects ([2]; in vivo): significant and undesirable side effects such as nausea
occurrence and severity of side effects, lower dosages ([2]; in vivo, po): significantly reduce the occurrence and severity of side effects
clinical efficacy ([2]; single large dose (~2 grams) as a bolus): clinically effective
killing of microorganisms [3]: effective for killing
